Reference: patent publication US6403621B1, “Method for protecting plants” (Syngenta Crop Protection, Inc., priority 1997, dated 2002)

Assays:
[1] = tested on: Eggs and juvenile root-knot nematodes; assay: Direct effect on eggs and juvenile root-knot nematodes in aqueous solution; design: species or system Meloidogyne spp.
Source text: Direct Effect of Acibenzolar-S-methyl onto Nematodes Eggs and juvenile root-knot nematodes are placed into aqueous solutions of acibenzolar-S-methyl (1, 10, 20 and 50 ppm active ingredient). No effect is observed on egg hatching and viability on those eggs and juvenils on penetration of those nematodes into tomato roots and on the number of eggs produced by those nematodes on tomatoes.

[2] = tested on: root-knot nematodes (Meloidogyne javanica and M. arenaria); assay: Egg production by root-knot nematodes on inoculated grapevines after foliar spray; format: in vivo; settings: 50 mg/l foliar spray, eggs in 20 ml sub-sample
Procedure: (§1) Root-knot nematodes (Meloidogyne spp.) are cultured on tobacco or tomato. Root-knot nematode eggs are collected from these plants and hatched for inoculation of the grapevines using the standard method. Nematode eggs are collected from the inoculated grapevines by agitating clean root pieces in 0,8% NaOCl for four minutes. The roots are washed on a bank of three sieves and eggs collected on a 25 μm sieve. The eggs are washed into 100 ml of water and the number of eggs in a 20 ml sub-sample is estimated using a Doncaster dish. Galling is assessed in grapevine roots before egg counts. The roots are assessed with the naked eye for percentage of galls on the roots.
(§2) Uniformly developed rooted hardwood grapevine cuttings, variety Cabernet Sauvignon (Vitis vinifera), are planted into 20 cm diameter pots (one plant per pot) containing a pasteurised potting mix consisting of 50:50 coarse sand and peat. (Prior to pasteurisation, 300 g of fertiliser is added to each 50 liter bin of potting mix. The fertiliser consisted of 1000 g single superphosphate, 200 g ammonium nitrate, 150 g potassium sulphate, 100 g ferrous sulphate, 3000 g dolomite lime and 1500 g lime). The grapevines are grown in a glasshouse at 19-24° C. The plants are watered on alternate days, and fertilised weekly with a water soluble fertiliser. Grapevines are inoculated with 1000 juveniles of a mixed population of root-knot nematodes (Meloidogyne javanica and M. arenaria) 4 weeks after planting. The nematodes are pipetted into two 2cm deep holes at the base of the plant. Grapevine roots are harvested for nematode egg counts 10 weeks after inoculation (described below).
(§3) Acibenzolar-S-methyl (which is benzo(1,2,3)thiadiazole-7-carbothioic acid S-methyl ester, a plant activator from NOVARTIS) is formulated as a 50% water dispersible granule, diluted to 50 mg per liter of spray mixture and sprayed onto the leaves of the grapevines (using a hand-held sprayer) until the point of run-off.
a) cumulative applications: In the first series, acibenzolar-S-methyl is applied to the plants once, twice or three times. The single treatment of acibenzolar-S-methyl is applied one week before inoculation; the double treatment is applied one week before inoculation and at the same time as inoculation; for the third treatment acibenzolar-S-methyl is applied one week before inoculation, at inoculation and one week after inoculation.
(§4) b) single applications: A second series of experiments tested only single applications of acibenzolar-S-methyl either five days before inoculation, at the same time as inoculation or five days after inoculation. Both series of experiments have been completed twice. Water is used as the control treatment in each series.
(§5) The tables indicate the number of eggs produced by Meloidogyne spp in a 20 ml sub-sample, and the percentage galling on roots, resp.

[3] = tested on: nematodes; assay: Protection of other crops against attack by nematodes; format: in vivo; settings: applied on tomatoes, soybean, carrots, potatoes and beet
Source text: Good effects for protecting plants against attack by nematodes are also found by applying acibenzolar-S-methyl on tomatoes, soybean, carrots, potatoes and beet.

[4] = tested on: grapevines; assay: Plant tolerance (phytotoxicity, appearance, fresh weights) of treated grapevines; format: in vivo, Vitis vinifera (Cabernet Sauvignon); settings: 50 mg/l foliar spray
Procedure: as §2, §3

[5] = tested on: root-knot nematodes (Meloidogyne javanica and M. arenaria); assay: Percentage galling on grapevine roots after foliar spray; format: in vivo; settings: 50 mg/l foliar spray
Procedure: as §1, §2, §3, §4, §5

[6] = after exposure to aqueous solutions, 1, 10, 20 and 50 ppm active ingredient

CSC(=O)c1cccc2nnsc12 [acibenzolar-S-methyl, benzo(1,2,3)thiadiazole-7-carbothioic acid S-methyl ester]
effect on number of eggs produced by the nematodes on tomatoes [1, 6]: No effect
effect on penetration of nematodes into tomato roots [1, 6]: No effect
effect on egg hatching and viability of eggs and juveniles ([1]; aqueous solutions, 1, 10, 20 and 50 ppm active ingredient): No effect
Number of eggs ([2]; one application (one week before inoculation), first experiment, 10 weeks after inoculation, control 4320): 1520 (8)
Number of eggs ([2]; one application (one week before inoculation), second experiment, control 240): 150 (7)
Number of eggs ([2]; three applications (one week before, at and one week after inoculation), first experiment, control 4320): 1400 (6)
Number of eggs ([2]; three applications (one week before, at and one week after inoculation), second experiment, control 240): 20 (7)
Number of eggs ([2]; two applications (one week before and at inoculation), first experiment, control 4320): 740 (7)
Number of eggs ([2]; two applications (one week before and at inoculation), second experiment, control 240): 100 (7)
protecting plants against attack by nematodes [3]: Good effects
appearance of grapevines at harvest ([4]; versus water control): no significant differences
phytotoxicity ([4]; grapevines): No phytotoxicity
root fresh weights or fresh weight of the foliage and stems ([4]; grapevines): no difference
Mean percentage galling ([5]; single application at inoculation, first experiment, control 10): 2.3 (8) %
Mean percentage galling ([5]; single application at inoculation, second experiment, control 5): 3 (6) %
Mean percentage galling ([5]; single application five days after inoculation, first experiment, control 10): 1.1 (8) %
Mean percentage galling ([5]; single application five days after inoculation, second experiment, control 5): 4 (8) %
Mean percentage galling ([5]; single application five days before inoculation, first experiment, control 10): 0.6 (8) %
Mean percentage galling ([5]; single application five days before inoculation, second experiment, control 5): 2 (7) %
